Reference: ChEMBL document CHEMBL5154737, “Semisynthesis and biological evaluation of (+)-sclerotiorin derivatives as antitumor agents for the treatment of hepatocellular carcinoma” (Eur J Med Chem, 2022)
Structures can show the parent of a compound that is named as a salt.

Key:
[1] = system: Bel-7402; assay: Cytotoxicity against human Bel-7402 cells assessed as inhibition rate at 5 uM incubated for 72 hrs by MTT assay relative to control; format: functional; parameters: scale not given: the % may be the effect or the level left
[2] = system: Bel-7402; assay: cells; settings: Homo sapiens, Bel-7402, 24 h, read-out: Activity
[3] = system: Bel-7402; assay: Cytotoxicity against human Bel-7402 cells assessed as reduction in cell viability incubated for 72 hrs by MTT assay; format: functional, cell-based; settings: Bel-7402, 72 h
[4] = Cytotoxicity against human HepG2 cells assessed as reduction in cell viability incubated for 72 hrs by MTT assay; format: toxicity, cell-based
[5] = Cytotoxicity against human Biu-87 cells assessed as reduction in cell viability incubated for 72 hrs by MTT assay; format: functional, cell-based; settings: BIU87, 72 h
[6] = system: ECa-109 cell line; assay: Cytotoxicity against human Eca-109 cells assessed as reduction in cell viability incubated for 72 hrs by MTT assay; format: functional, cell-based; settings: ECa-109, 72 h
[7] = system: PANC-1; assay: Cytotoxicity against human PANC-1 cells assessed as reduction in cell viability incubated for 72 hrs by MTT assay; format: functional, cell-based; settings: PANC-1, 72 h
[8] = system: HeLa; assay: Cytotoxicity against human HeLa cells assessed as reduction in cell viability incubated for 72 hrs by MTT assay; format: functional, cell-based

| SMILES | Activity [1] [%] | other results |
| --- | --- | --- |
| CC[C@H](C)/C=C(C)/C=C/C1=CC2=C(Cl)C(=O)[C@](C)(OC(C)=O)C(=O)C2=CN1c1ccc(OC(F)(F)F)cc1 | 22.81 |  |
| N#CC(=C(/N)Sc1ccccc1N)/C(C#N)=C(\N)Sc1ccccc1N |  | viability at 20 µM [2]: 88.3% |
| CC[C@H](C)/C=C(C)/C=C/C1=CC2=C(Cl)C(=O)[C@](C)(OC(C)=O)C(=O)C2=CN1c1ccc(C(F)(F)F)cc1 | 28.9 |  |
| CC[C@H](C)/C=C(C)/C=C/C1=CC2=C(Cl)C(=O)[C@](C)(O)C(=O)C2=CN1c1ccc(OC)c(OC)c1 | 5.75 |  |
| CC[C@H](C)/C=C(C)/C=C/C1=CC2=C(Cl)C(=O)[C@](C)(OC(C)=O)C(=O)C2=CN1Cc1ccc(OC)cc1 | 6.58 |  |
| CC[C@H](C)/C=C(C)/C=C/C1=CC2=C(Cl)C(=O)[C@](C)(O)C(=O)C2=CN1c1cc(OC)c(OC)c(OC)c1 | 11.27 |  |
| CC[C@H](C)/C=C(C)/C=C/C1=CC2=C(Cl)C(=O)[C@](C)(OC(C)=O)C(=O)C2=CN1CCc1cccc(C(F)(F)F)c1 | 35.93 |  |
| CC[C@H](C)/C=C(C)/C=C/C1=CC2=C(Cl)C(=O)[C@](C)(O)C(=O)C2=CN1c1ccc(OC(F)(F)F)cc1 | 43.16 |  |
| CC[C@H](C)/C=C(C)/C=C/C1=CC2=C(Cl)C(=O)[C@](C)(O)C(=O)C2=CN1Cc1ccc(C(F)(F)F)cn1 | 10.55 |  |
| CC[C@H](C)/C=C(C)/C=C/C1=CC2=C(Cl)C(=O)[C@](C)(OC(C)=O)C(=O)C2=CN1Cc1ccc(C(F)(F)F)cc1 | 44.16 |  |
| CC[C@H](C)/C=C(C)/C=C/C1=CC2=C(Cl)C(=O)[C@](C)(OC(C)=O)C(=O)C2=CN1Cc1ccc(C)cc1 | 16.2 |  |
| CC[C@H](C)/C=C(C)/C=C/C1=CC2=C(Cl)C(=O)[C@](C)(OC(C)=O)C(=O)C2=CN1Cc1ccc(C(F)(F)F)cn1 | 21.49 |  |
| CC[C@H](C)/C=C(C)/C=C/C1=CC2=C(Cl)C(=O)[C@](C)(OC(C)=O)C(=O)C2=CN1Cc1ccc(OC(F)(F)F)cc1 | 27.46 |  |
| CC[C@H](C)/C=C(C)/C=C/C1=CC2=C(Cl)C(=O)[C@](C)(O)C(=O)C2=CN1CCc1cccc(C(F)(F)F)c1 | 45.76 |  |
| CC[C@H](C)/C=C(C)/C=C/C1=CC2=C(Cl)C(=O)[C@](C)(O)C(=O)C2=CN1c1cc(OC)cc(OC)c1 | 11.14 |  |
| CC[C@H](C)/C=C(C)/C=C/C1=CC2=C(Cl)C(=O)[C@](C)(O)C(=O)C2=CN1Cc1ccc(C(F)(F)F)nc1 | 12.09 |  |
| CC[C@H](C)/C=C(C)/C=C/C1=CC2=C(Cl)C(=O)[C@](C)(OC(C)=O)C(=O)C2=CN1Cc1ccc(C(F)(F)F)nc1 | 21.53 |  |
| CC[C@H](C)/C=C(C)/C=C/C1=CC2=C(Cl)C(=O)[C@](C)(OC(C)=O)C(=O)C2=CN1c1ccc(OC)c(OC)c1 | 8.16 |  |
| CC[C@H](C)/C=C(C)/C=C/C1=CC2=C(Cl)C(=O)[C@](C)(O)C(=O)C2=CN1Cc1ccc(C(F)(F)F)cc1 | 81.73 | IC50 [3]: 1.45 µM; IC50 at 72 h [4]: 3.36 µM; IC50 [5]: 3.1 µM; IC50 [6]: 1.48 µM; IC50 [7]: 1.44 µM; IC50 [8]: 2.4 µM |
| CC[C@H](C)/C=C(C)/C=C/C1=CC2=C(Cl)C(=O)[C@](C)(O)C(=O)C2=CN1c1ccc(C(F)(F)F)cc1 | 63.16 |  |
| CC[C@H](C)/C=C(C)/C=C/C1=CC2=C(Cl)C(=O)[C@](C)(O)C(=O)C2=CN1Cc1ccc(OC)cc1 | 36.51 |  |
| C=CCN1C=C2C(=O)[C@@](C)(OC(C)=O)C(=O)C(Cl)=C2C=C1/C=C/C(C)=C/[C@@H](C)CC | 8.65 |  |
| CC[C@H](C)/C=C(C)/C=C/C1=CC2=C(Cl)C(=O)[C@](C)(OC(C)=O)C(=O)C2=CN1c1cc(OC)c(OC)c(OC)c1 | 9.61 |  |
| CC[C@H](C)/C=C(C)/C=C/C1=CC2=C(Cl)C(=O)[C@](C)(OC(C)=O)C(=O)C2=CN1c1cc(OC)cc(OC)c1 | 7.94 |  |
| COc1cccc2c1C(=O)c1c(O)c3c(c(O)c1C2=O)C[C@@](O)(C(=O)CO)C[C@@H]3O[C@H]1C[C@H](N)[C@H](O)[C@H](C)O1 [DOXORUBICIN HYDROCHLORIDE] |  | IC50 [3]: 0.369 µM; IC50 at 72 h [4]: 0.45 µM; IC50 [6]: 0.201 µM; IC50 [8]: 0.602 µM |
| CC[C@H](C)/C=C(C)/C=C/C1=CC2=C(Cl)C(=O)[C@](C)(OC(C)=O)C(=O)C2=CN1c1ccc(OC)cc1 | 7.45 |  |
| C#CCN1C=C2C(=O)[C@@](C)(OC(C)=O)C(=O)C(Cl)=C2C=C1/C=C/C(C)=C/[C@@H](C)CC | 6.81 |  |
| CC[C@H](C)/C=C(C)/C=C/C1=CC2=C(Cl)C(=O)[C@](C)(O)C(=O)C2=CN1Cc1ccc(C)cc1 | 20.52 |  |
